Series [1] in a line: Compound tissue distribution (brain/plasma). It counts as in vivo. Conditions: brain and plasma, po; rat, 1 mg/kg p.o. in 5% DMSO+70% PEG400+25% H2O, one hour; read-out: Brain/Plasma ratio. Here is the method: The distribution ratio of blood brain tissue was calculated by comparing the concentration of compound in rat plasma and brain tissue. The experimental animals were divided into two groups, the plasma group and the brain group, each with three. To measure brain to plasma ratio, rats were administed compounds in 50% PEG400 p.o. at a dose of 10 mg compound to be tested/kg. One hour later, plasma and brain samples were taken. Concentrations of compounds in brain and plasma were detected using LC-MS/MS-AJ (Triple Quad 5500) assay and analyzed using Phoenix WinNonlin.
We also measured the brain to plasma ratio of compound #24. The experimental animals were divided into two groups, the plasma group and the brain group, each with three. To measure the brain to plasma ratio, Rats were administered compounds (1 mg/kg in 5% DMSO+70% PEG400+25% H2O p.o.). One hour later, plasma and brain samples were taken. Concentrations of compounds in brain and plasma were detected using a LC-MS/MS-AJ (Triple Quad 5500) assay and analyzed using Phoenix WinNonlin.

Series [2] deals with T1, α5β3γ2 receptor (Homo sapiens, UniProt P18507+P31644).
T1 construct: expressed in transfected cells; host or cells: HEK-293 (stably transfected)
As to the kind of experiment: Supplementary data for cell level screening: new electrophysiology method (I. Lecker et al). It counts as cell-based. As to conditions: for Inverse agonism efficacy(%): new method, CsCl intracellular solution, GABA 0.1˜0.3 CM, other procedures as previous method; for inverse agonism efficacy of the compound/α5IA inverse agonism efficacy: ratio to the α5IA reference run above in the table (r4 or r29). As for the experimental part: The inventors used electrophysiological methods to assay the inverse agonist efficacy of the substance to be tested. The detailed procedures are as follows: (1) Different subunits of GABAA receptors were expressed in human embryonic kidney cells 293 (HEK293). The cells were cultured in a culture medium and used as a cell model for screening potential analgesics. The α, β and γ subunits are necessary to form complete functional GABAA receptors. In this example, the inventor has established the following cell model: (a) α5 subunit (protein sequence is GenBank accession number: NP_001158509), β3 subunit (protein sequence is GenBank accession number: NP_068712) and γ2 subunit (protein sequence is GenBank accession number: NP_944494) were expressed in HEK-293 cell lines at the same time, which formed the complete functional GABAA receptors. (2) Cells were stably transfected HEK-293 cells expressing α5β3γ2 receptor, which were labeled by green fluorescent protein (GFP). Cells were grown in 10 cm dishes. The cells were passaged after reaching 80-90% confluence. During passaging, the culture medium was removed and discarded, 3 mL DMEM medium (Gibco™) was added to the dishes, the dishes were shaken slightly, and DMEM was removed and discarded. 3 mL Trypsin (Trypsin-EDTA 0.05%, Gibco™) was added and cells were digested at 37° C. for 3 minutes. Then 3 mL complete growth medium (DMEM+10% horse serum (Gibco™)) was added and the cells at the bottom of the culture dishes were dispersed. The cell suspension were transferred to a 15 mL centrifugal tube (Corning®) and then centrifuged at 200 g for 3 minutes. The supernatant was discarded, 4 mL complete growth medium was added, and the cells were resuspended by gently blowing. The cell suspension was diluted by 1:5 or 1:10 for subculturing. The cell suspension was diluted by 1:12 for electrophysiology experiment, which are added to the 24 well plate (Corning®) which has a glass slide pre-treated with poly-D-lysine. The cells were adhered to the slide before the experiment was conducted. The cells were maintained in culture for no more than 24 hours before use. (3) Compound concentration: for screening, all compounds were diluted to a final concentration of 100 nM. […] The compounds were at the concentration of 1 nM, 10 nM, 50 nM, 100 nM and 1000 nM in dose-inverse agonism efficacy (%) experiment. The whole cell patch clamp technique was used in electrophysiology experiments. The extracellular solution (ECS) contained: 150 mM NaCl, 5 mM KCl, 2.5 mM CaCl2, 1 mM MgCl2, 10 mM HEPES and 10 mM glucose (pH 7.4); […], 5 mM EGTA, 10 mM HEPES ([…] water). The currents were recorded by an EPC-10 amplifier and the PatchMaster software (HEKA). Patch electrodes with a resistance of 5-6 MΩ were pulled from borosilicate glass (Sutter). The diluted compounds were perfused by OCTAFLOWII system. GFP positive and independently growing cells were selected for recording. During recording, the membrane voltage was clamped at −60 mV. During experiment, the cells were firstly perfused with ECS for 20 seconds. When the baseline reached to a stable state, cells were then perfused with GABA solution. Then the current induced by GABA can be detected. After about 20-40 seconds, the current was stable. ECS was switched to compounds solution and the effects of the compounds were detected. At last, the perfusion solution was switched to ECS. The experiment was finished when the post-baseline returned to the pre-baseline before compounds perfusion. Only the data whose pre-baseline and post-baseline are at almost the same level were used for analysis. […] Then, compounds were diluted at the desired concentration in GABA ECS. (4) Currents were analyzed with the PatchMaster (HEKA) software. The GABA currents before (Ipre) and after (Ipost) compounds perfusion were recorded respectively. The efficacies of compounds were calculated by the following equation: inverse agonism efficacy=(Ipost-Ipre)*100/Ipre. N indicates experiment numbers. […]

The target in series [3] is T1, α5β3γ2 receptor. The experiment in a line: Cell level screening: whole cell patch clamp, inverse agonist efficacy. It counts as cell-based. As to conditions: for inhibition at 0.1 µM: HEK293, compound 100 nM, GABA 0.05-0.1 μM, HEK293 α5β3γ2, clamped at −60 mV, (Ipost-Ipre)*100/Ipre, read-out: inverse agonism efficacy(%); for inverse agonism efficacy of the compound/α5IA inverse agonism efficacy: ratio to α5IA, compound 100 nM. As for the experimental part:
The inventors used electrophysiological methods to assay the inverse agonist efficacy of the substance to be tested. The detailed procedures are as follows: (1) Different subunits of GABAA receptors were expressed in human embryonic kidney cells 293 (HEK293). The cells were cultured in a culture medium and used as a cell model for screening potential analgesics. The α, β and γ subunits are necessary to form complete functional GABAA receptors. In this example, the inventor has established the following cell model: (a) α5 subunit (protein sequence is GenBank accession number: NP_001158509), β3 subunit (protein sequence is GenBank accession number: NP_068712) and γ2 subunit (protein sequence is GenBank accession number: NP_944494) were expressed in HEK-293 cell lines at the same time, which formed the complete functional GABAA receptors. (2) Cells were stably transfected HEK-293 cells expressing α5β3γ2 receptor, which were labeled by green fluorescent protein (GFP). Cells were grown in 10 cm dishes. The cells were passaged after reaching 80-90% confluence. During passaging, the culture medium was removed and discarded, 3 mL DMEM medium (Gibco™) was added to the dishes, the dishes were shaken slightly, and DMEM was removed and discarded. 3 mL Trypsin (Trypsin-EDTA 0.05%, Gibco™) was added and cells were digested at 37° C. for 3 minutes. Then 3 mL complete growth medium (DMEM+10% horse serum (Gibco™)) was added and the cells at the bottom of the culture dishes were dispersed. The cell suspension were transferred to a 15 mL centrifugal tube (Corning®) and then centrifuged at 200 g for 3 minutes. The supernatant was discarded, 4 mL complete growth medium was added, and the cells were resuspended by gently blowing. The cell suspension was diluted by 1:5 or 1:10 for subculturing. The cell suspension was diluted by 1:12 for electrophysiology experiment, which are added to the 24 well plate (Corning®) which has a glass slide pre-treated with poly-D-lysine. The cells were adhered to the slide before the experiment was conducted. The cells were maintained in culture for no more than 24 hours before use. (3) Compound concentration: for screening, all compounds were diluted to a final concentration of 100 nM. GABA was diluted at the concentration of 0.05-0.1 μM. The compounds were at the concentration of 1 nM, 10 nM, 50 nM, 100 nM and 1000 nM in dose-inverse agonism efficacy (%) experiment. The whole cell patch clamp technique was used in electrophysiology experiments. The extracellular solution (ECS) contained: 150 mM NaCl, 5 mM KCl, 2.5 mM CaCl2, 1 mM MgCl2, 10 mM HEPES and 10 mM glucose (pH 7.4); Patch electrodes were filled with an intracellular solution containing: 140 mM KCl, 5 mM EGTA, 10 mM HEPES (adjusted to pH 7.4 with KOH and to 320-330 mOsm with water). The currents were recorded by an EPC-10 amplifier and the PatchMaster software (HEKA). Patch electrodes with a resistance of 5-6 MΩ were pulled from borosilicate glass (Sutter). The diluted compounds were perfused by OCTAFLOWII system. GFP positive and independently growing cells were selected for recording. During recording, the membrane voltage was clamped at −60 mV. During experiment, the cells were firstly perfused with ECS for 20 seconds. When the baseline reached to a stable state, cells were then perfused with GABA solution. Then the current induced by GABA can be detected. After about 20-40 seconds, the current was stable. ECS was switched to compounds solution and the effects of the compounds were detected. At last, the perfusion solution was switched to ECS. The experiment was finished when the post-baseline returned to the pre-baseline before compounds perfusion. Only the data whose pre-baseline and post-baseline are at almost the same level were used for analysis. GABA was diluted at the concentration of 0.05-0.1 μM in ECS. Then, compounds were diluted at the desired concentration in GABA ECS. (4) Currents were analyzed with the PatchMaster (HEKA) software. […]
A general note: Patch clamp records ionic current or voltage across a cell membrane.

Series [4] deals with T2, α5-GABAA (Homo sapiens, UniProt P31644).
T2 sequence (P31644 32-462): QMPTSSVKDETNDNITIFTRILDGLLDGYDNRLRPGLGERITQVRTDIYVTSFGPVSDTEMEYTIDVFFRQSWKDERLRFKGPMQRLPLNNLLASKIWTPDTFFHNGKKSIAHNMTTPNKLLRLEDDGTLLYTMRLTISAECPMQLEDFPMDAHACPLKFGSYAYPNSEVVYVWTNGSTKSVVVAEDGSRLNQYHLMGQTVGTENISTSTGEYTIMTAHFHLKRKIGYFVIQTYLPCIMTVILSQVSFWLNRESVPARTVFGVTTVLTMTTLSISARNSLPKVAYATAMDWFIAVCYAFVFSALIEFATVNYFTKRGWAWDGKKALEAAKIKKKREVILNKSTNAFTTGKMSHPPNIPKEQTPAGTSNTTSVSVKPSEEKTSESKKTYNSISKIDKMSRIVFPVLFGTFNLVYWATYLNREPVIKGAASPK
As to conditions: cited from earlier work.

T1 sequence (P28472 26-473 isoform P28472-2 partner limits assumed, one chain of several): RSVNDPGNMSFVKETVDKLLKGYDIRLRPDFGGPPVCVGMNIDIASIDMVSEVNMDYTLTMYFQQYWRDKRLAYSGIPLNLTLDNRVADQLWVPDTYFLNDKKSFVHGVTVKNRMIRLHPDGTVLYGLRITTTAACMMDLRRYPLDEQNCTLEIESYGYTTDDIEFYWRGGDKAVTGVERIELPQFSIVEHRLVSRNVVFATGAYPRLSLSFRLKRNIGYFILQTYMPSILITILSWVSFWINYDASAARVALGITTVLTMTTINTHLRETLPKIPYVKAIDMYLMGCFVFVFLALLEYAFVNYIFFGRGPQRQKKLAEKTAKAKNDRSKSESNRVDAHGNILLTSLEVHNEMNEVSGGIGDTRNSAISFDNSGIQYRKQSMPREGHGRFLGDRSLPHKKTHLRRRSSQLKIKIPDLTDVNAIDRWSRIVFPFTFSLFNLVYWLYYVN
T1 sequence (P18507 40-475, one chain of several): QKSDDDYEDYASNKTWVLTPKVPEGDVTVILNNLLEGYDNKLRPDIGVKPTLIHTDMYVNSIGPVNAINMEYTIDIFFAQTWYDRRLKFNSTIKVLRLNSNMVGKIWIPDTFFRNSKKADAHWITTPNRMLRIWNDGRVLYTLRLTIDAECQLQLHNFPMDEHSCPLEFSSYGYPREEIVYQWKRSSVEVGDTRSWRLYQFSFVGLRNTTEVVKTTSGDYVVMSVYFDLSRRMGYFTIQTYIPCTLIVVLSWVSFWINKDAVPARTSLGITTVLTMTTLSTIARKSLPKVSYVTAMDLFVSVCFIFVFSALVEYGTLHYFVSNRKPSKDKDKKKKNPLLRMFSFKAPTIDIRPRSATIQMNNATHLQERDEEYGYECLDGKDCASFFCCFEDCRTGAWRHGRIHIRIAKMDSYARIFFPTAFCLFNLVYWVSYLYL

For `Cc1cc(-c2nnc3c4ccccc4c(OCc4ccc(C(=O)NCC5CC5)cn4)nn23)no1` [Compound 24, N-(cyclopropylmethyl)-6-(((3-(5-methylisoxazol-3-yl)-[1,2,4]triazolo[3,4-a]phthalazin-6-yl)oxy)methyl)nicotinamide], the Kp at 1 h in series [1] came out at 0.044. Further, in series [2], the “Inverse agonism efficacy(%)” value is −34.5% and the “inverse agonism efficacy of the compound/α5IA inverse agonism efficacy” value is on record as 1.855.
As to `O=C(NC1CCC1)c1ccc(COc2nn3c(-c4cc(CO)on4)nnc3c3ccccc23)nc1` [Compound 48, N-cyclobutyl-6-(((3-(5-(hydroxymethyl)isoxazol-3-yl)-[1,2,4]triazolo[3,4-a]phthalazin-6-yl)oxy)methyl)nicotinamide], in series [3], the inhibition at 0.1 µM amounted to 43.2% and the “inverse agonism efficacy of the compound/α5IA inverse agonism efficacy” value worked out at 1.915. Also, in series [2], the “Inverse agonism efficacy(%)” value is −20% and the “inverse agonism efficacy of the compound/α5IA inverse agonism efficacy” value is given as 1.151.
For the compound `C[C@H](CO)NC(=O)c1ccc(COc2nn3c(-c4cc(CO)on4)nnc3c3ccccc23)c(C#N)c1` [Compound 55, (R)-3-cyano-4-(((3-(5-(hydroxymethyl)isoxazol-3-yl)-[1,2,4]triazolo[3,4-a]phthalazin-6-yl)oxy)methyl)-N-(1-hydroxypropan-2-yl)benzamide], in series [3], the inhibition at 0.1 µM came to 33.3% and the “inverse agonism efficacy of the compound/α5IA inverse agonism efficacy” value is 1.4765. Further, in series [2], the “Inverse agonism efficacy(%)” value is −31.6% and the “inverse agonism efficacy of the compound/α5IA inverse agonism efficacy” value worked out at 1.819.
`Cc1nc(-c2nnc3c4ccccc4c(OCc4ccc(C(=O)N[C@H](C)CO)cn4)nn23)no1` [Compound 57, (R)—N-(1-hydroxypropan-2-yl)-6-(((3-(5-methyl-1,2,4-oxadiazol-3-yl)-[1,2,4]triazolo[3,4-a]phthalazin-6-yl)oxy)methyl)nicotinamide]: in series [3], the inhibition at 0.1 µM was 38.3% and the “inverse agonism efficacy of the compound/α5IA inverse agonism efficacy” value was determined as 1.6973. In series [2], the “Inverse agonism efficacy(%)” value is reported as −25% and the “inverse agonism efficacy of the compound/α5IA inverse agonism efficacy” value is on record as 1.439.
Turning to `Cc1cc(-c2nnc3c4ccccc4c(OCc4cc(C(=O)N[C@H](C)CO)on4)nn23)no1` [Compound 58, (R)—N-(1-hydroxypropan-2-yl)-3-(((3-(5-methylisoxazol-3-yl)-[1,2,4]triazolo[3,4-a]phthalazin-6-yl)oxy)methyl)isoxazole-5-carboxamide], in series [3], the inhibition at 0.1 µM was determined as 30% and the “inverse agonism efficacy of the compound/α5IA inverse agonism efficacy” value was 1.33. Further, in series [2], the “Inverse agonism efficacy(%)” value was −27% and the “inverse agonism efficacy of the compound/α5IA inverse agonism efficacy” value came to 1.554.
For the compound `CCOC(=O)c1ncn2c1[C@@H]1CCCN1C(=O)c1cc(OC)ccc1-2` [L-655,708], the inhibition efficacy in series [4] (GABA 1 μM, highest dose of L-655,708) is given as ~15%. Further, the “inhibition of the current induced by low level GABA” value in series [4] (GABA 5, 50 and 500 nM) is recorded as “in the concentration dependent manner”. In series [4] (GABA concentration higher than 1 μM), the “inhibition on the current induced by GABA” value is “no inhibition”.
